# Measured values taken from US20240317780A1, “RADIOPHARMACEUTICAL SOMATOSTATIN RECEPTOR LIGANDS AND PRECURSORS THEREOF” (Technische Universität München, priority 2021, published 2024).
# Columns and labels:
# [1] = Octanol-water distribution coefficient (logD pH 7.4) of the labeled tracer; type: physicochemical; conditions: n-octanol/PBS pH 7.4, room temperature
# Method: Approximately 1 MBq of the labeled tracer was dissolved in 1 mL of a 1:1 mixture (by volumes) of phosphate buffered saline (PBS, pH 7.4) and n-octanol in an Eppendorf tube. After vigorous mixing of the suspension for 3 minutes at room temperature, the vial was centrifuged at 15000 g for 5 minutes (Biofuge 15, Heraus Sepatech, Osterode, Germany) and 100 μL aliquots of both layers were measured in a gamma counter. The experiment was repeated at least six times.
# HSA = HSA (Homo sapiens, UniProt P02768); experiment: HSA binding by RIAC method (gel filtration, apparent molecular weight); type: in vitro ADME; conditions: HSA binding as apparent molecular weight, 700 μM HSA in PBS mobile phase
# Method: A gel filtration column Superdex 75 Increase 10/300 GL (GE Healthcare, Uppsala, Sweden) was beforehand calibrated following the producer's recommendations with a commercially available gel filtration calibration kit (GE Healthcare, Buckinghamshire, UK) comprising conalbumin (MW: 75 kDa), ovalbumin (44 kDa), carbonic anhydrase (29 kDa), ribonuclease A (13.7 kDa) and aprotinin (6.5 kDa) as reference proteins of known molecular weight. AMSEC experiments were conducted using a constant flow rate of 0.8 mL/min at rt. A solution of HSA in PBS at physiological concentration (700 μM) was used as the mobile phase. SST2 ligands were labelled as described with molar activities of 10-20 GBq/μmol. Probes of 1.0 MBq of the radioligand were injected directly from the labelling solution. HSA binding was expressed as an apparent molecular weight MW calculated from the retention time of the radioligand using the determined calibration curve.
# For evaluation, experimentally determined retention times tR are first converted into elution volumes Ve by multiplying with the flow rate and thereafter converted into partition coefficients Kav following the equation
# where V0 is the column void volume (8.027 mL) and Vc is the geometric column volume (24 mL). Using the equation given by the trend line plot of the column calibration
# the apparent molecular weight MW is calculated as […]
# Chain of HSA (P02768 25-609): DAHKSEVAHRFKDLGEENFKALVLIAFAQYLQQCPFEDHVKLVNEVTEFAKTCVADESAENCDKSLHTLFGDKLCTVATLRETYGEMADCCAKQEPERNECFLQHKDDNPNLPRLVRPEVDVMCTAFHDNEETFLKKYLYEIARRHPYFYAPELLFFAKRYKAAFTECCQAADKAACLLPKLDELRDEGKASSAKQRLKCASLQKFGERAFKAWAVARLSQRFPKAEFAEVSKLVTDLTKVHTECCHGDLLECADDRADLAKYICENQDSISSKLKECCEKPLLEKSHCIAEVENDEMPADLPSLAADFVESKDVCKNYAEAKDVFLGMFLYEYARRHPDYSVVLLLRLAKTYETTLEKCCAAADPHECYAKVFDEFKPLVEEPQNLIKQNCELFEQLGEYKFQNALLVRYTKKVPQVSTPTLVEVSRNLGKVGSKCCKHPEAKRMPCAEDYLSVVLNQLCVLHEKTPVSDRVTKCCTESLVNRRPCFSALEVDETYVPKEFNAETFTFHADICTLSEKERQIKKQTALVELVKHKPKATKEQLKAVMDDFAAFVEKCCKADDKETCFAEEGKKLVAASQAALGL
Compound,LogDpH=7.4 [1],HSA (HSA) [kDa]
C[C@@H](O)[C@H](NC(=O)C1CSSCC(NC(=O)C(Cc2ccccc2)NC(=O)CNC(=O)CNC(=O)CNC(=O)C(CC(=O)O)NC(=O)[C@@H](CC(=O)O)NC(=O)C(CNC(=O)CN2CCN(CC(=O)O)CCN(CC(=O)O)CCN(CC(=O)O)CC2)NC(=O)[C@@H](CN)NC(=O)CNC(=O)CNC(=O)C[N+](C)(C)Cc2ccc([Si](F)(C(C)(C)C)C(C)(C)C)cc2)C(=O)N[C@@H](Cc2ccc(O)cc2)C(=O)NC(Cc2c[nH]c3ccccc23)C(=O)N[C@@H](CCCCN)C(=O)N[C@@H]([C@@H](C)O)C(=O)N1)C(=O)O (stereo partly drawn) [[Lu]53],−1.74 ± 0.03,9.81
C[C@@H](O)[C@H](NC(=O)C1CSSCC(NC(=O)C(Cc2ccccc2)NC(=O)CNC(=O)CNC(=O)CNC(=O)C(CC(=O)O)NC(=O)[C@@H](CC(=O)O)NC(=O)C(CNC(=O)CN2CCN(CC(=O)O)CCN(CC(=O)O)CCN(CC(=O)O)CC2)NC(=O)[C@@H](CN)NC(=O)C[N+](C)(C)Cc2ccc([Si](F)(C(C)(C)C)C(C)(C)C)cc2)C(=O)N[C@@H](Cc2ccc(O)cc2)C(=O)NC(Cc2c[nH]c3ccccc23)C(=O)N[C@@H](CCCCN)C(=O)N[C@@H]([C@@H](C)O)C(=O)N1)C(=O)O (stereo partly drawn) [[Lu]51],−1.71 ± 0.05,8.84
C[C@@H](O)[C@H](NC(=O)C1CSSCC(NC(=O)C(Cc2ccccc2)NC(=O)CNC(=O)CNC(=O)CNC(=O)C(CC(=O)O)NC(=O)[C@@H](CC(=O)O)NC(=O)C(CCCNC(N)=O)NC(=O)[C@@H](CNC(=O)C[N+](C)(C)Cc2ccc([Si](F)(C(C)(C)C)C(C)(C)C)cc2)NC(=O)CN2CCN(CC(=O)O)CCN(CC(=O)O)CCN(CC(=O)O)CC2)C(=O)N[C@@H](Cc2ccc(O)cc2)C(=O)NC(Cc2c[nH]c3ccccc23)C(=O)N[C@@H](CCCCN)C(=O)N[C@@H]([C@@H](C)O)C(=O)N1)C(=O)O (stereo partly drawn) [[Ga]46],−2.22 ± 0.03,6.81
C[C@@H](O)[C@H](NC(=O)C1CSSCC(NC(=O)C(Cc2ccccc2)NC(=O)CNC(=O)CNC(=O)CNC(=O)C(CC(=O)O)NC(=O)[C@@H](CC(=O)O)NC(=O)C(CCCCN)NC(=O)[C@@H](CNC(=O)C[N+](C)(C)Cc2ccc([Si](F)(C(C)(C)C)C(C)(C)C)cc2)NC(=O)CN2CCN(CC(=O)O)CCN(CC(=O)O)CCN(CC(=O)O)CC2)C(=O)N[C@@H](Cc2ccc(O)cc2)C(=O)NC(Cc2c[nH]c3ccccc23)C(=O)N[C@@H](CCCCN)C(=O)N[C@@H]([C@@H](C)O)C(=O)N1)C(=O)O (stereo partly drawn) [[Ga]45],−2.10 ± 0.04,7.76
C[C@@H](O)[C@H](NC(=O)C1CSSCC(NC(=O)C(Cc2ccccc2)NC(=O)CNC(=O)CNC(=O)CNC(=O)C(CC(=O)O)NC(=O)[C@@H](CC(=O)O)NC(=O)C(CCC(=O)O)NC(=O)[C@@H](CNC(=O)C[N+](C)(C)Cc2ccc([Si](F)(C(C)(C)C)C(C)(C)C)cc2)NC(=O)CN2CCN(CC(=O)O)CCN(CC(=O)O)CCN(CC(=O)O)CC2)C(=O)N[C@@H](Cc2ccc(O)cc2)C(=O)NC(Cc2c[nH]c3ccccc23)C(=O)N[C@@H](CCCCN)C(=O)N[C@@H]([C@@H](C)O)C(=O)N1)C(=O)O (stereo partly drawn) [[Ga]47],−2.30 ± 0.02,7.66
C[C@@H](O)[C@H](NC(=O)C1CSSCC(NC(=O)C(Cc2ccccc2)NC(=O)CNC(=O)CNC(=O)CNC(=O)C(CC(=O)O)NC(=O)[C@@H](CC(=O)O)NC(=O)C(CNC(=O)CN2CCN(CC(=O)O)CCN(CC(=O)O)CCN(CC(=O)O)CC2)NC(=O)[C@@H](CN)NC(=O)CNC(=O)C[N+](C)(C)Cc2ccc([Si](F)(C(C)(C)C)C(C)(C)C)cc2)C(=O)N[C@@H](Cc2ccc(O)cc2)C(=O)NC(Cc2c[nH]c3ccccc23)C(=O)N[C@@H](CCCCN)C(=O)N[C@@H]([C@@H](C)O)C(=O)N1)C(=O)O (stereo partly drawn) [[Lu]52],−1.88 ± 0.05,8.47
C[C@@H](O)[C@H](NC(=O)C1CSSCC(NC(=O)C(Cc2ccccc2)NC(=O)CNC(=O)CNC(=O)[C@@H](CC(=O)O)NC(=O)C(CC(=O)O)NC(=O)[C@@H](CNC(=O)CN2CCN(CC(=O)O)CCN(CC(=O)O)CCN(CC(=O)O)CC2)NC(=O)C[N+](C)(C)Cc2ccc([Si](F)(C(C)(C)C)C(C)(C)C)cc2)C(=O)N[C@@H](Cc2ccc(O)cc2)C(=O)NC(Cc2c[nH]c3ccccc23)C(=O)N[C@@H](CCCCN)C(=O)N[C@@H]([C@@H](C)O)C(=O)N1)C(=O)O (stereo partly drawn) [[Ga]24],−1.92 ± 0.03,8.77
C[C@@H](O)[C@H](NC(=O)C1CSSCC(NC(=O)C(Cc2ccccc2)NC(=O)CNC(=O)CNC(=O)[C@@H](CC(=O)O)NC(=O)C(CC(=O)O)NC(=O)[C@@H](CNC(=O)CC[C@H](C(=O)O)N2CCN(CC(=O)O)CCN(CC(=O)O)CCN(CC(=O)O)CC2)NC(=O)C(CN)NC(=O)c2ccc([Si](F)(C(C)(C)C)C(C)(C)C)cc2)C(=O)N[C@@H](Cc2ccc(O)cc2)C(=O)NC(Cc2c[nH]c3ccccc23)C(=O)N[C@@H](CCCCN)C(=O)N[C@@H]([C@@H](C)O)C(=O)N1)C(=O)O (stereo partly drawn) [[Ga]20],−2.16 ± 0.04,21.49
C[C@@H](O)[C@H](NC(=O)C1CSSCC(NC(=O)C(Cc2ccccc2)NC(=O)[C@@H](CC(N)=O)NC(=O)C(CC(N)=O)NC(=O)CNC(=O)C(CC(=O)O)NC(=O)[C@@H](CC(=O)O)NC(=O)C(CNC(=O)CN2CCN(CC(=O)O)CCN(CC(=O)O)CCN(CC(=O)O)CC2)NC(=O)C[N+](C)(C)Cc2ccc([Si](F)(C(C)(C)C)C(C)(C)C)cc2)C(=O)N[C@@H](Cc2ccc(O)cc2)C(=O)NC(Cc2c[nH]c3ccccc23)C(=O)N[C@@H](CCCCN)C(=O)N[C@@H]([C@@H](C)O)C(=O)N1)C(=O)O (stereo partly drawn) [[Ga]49],−2.16 ± 0.03,7.26
C[C@@H](O)[C@H](NC(=O)C1CSSCC(NC(=O)C(Cc2ccccc2)NC(=O)CNC(=O)CNC(=O)CNC(=O)C(CC(=O)O)NC(=O)[C@@H](CC(=O)O)NC(=O)C(CNC(=O)CN2CCN(CC(=O)O)CCN(CC(=O)O)CCN(CC(=O)O)CC2)NC(=O)[C@@H](CN)NC(=O)C[N+](C)(C)Cc2ccc([Si](F)(C(C)(C)C)C(C)(C)C)cc2)C(=O)N[C@@H](Cc2ccc(O)cc2)C(=O)NC(Cc2c[nH]c3ccccc23)C(=O)N[C@@H](CCCCN)C(=O)N[C@@H]([C@@H](C)O)C(=O)N1)C(=O)O (stereo partly drawn) [[Ga]51],−1.97 ± 0.01,8.71
C[C@@H](O)[C@H](NC(=O)C1CSSCC(NC(=O)C(Cc2ccccc2)NC(=O)CNC(=O)CNC(=O)CNC(=O)C(CC(=O)O)NC(=O)[C@@H](CC(=O)O)NC(=O)C(CNC(=O)CN2CCN(CC(=O)O)CCN(CC(=O)O)CCN(CC(=O)O)CC2)NC(=O)C[N+](C)(C)Cc2ccc([Si](F)(C(C)(C)C)C(C)(C)C)cc2)C(=O)N[C@@H](Cc2ccc(O)cc2)C(=O)NC(Cc2c[nH]c3ccccc23)C(=O)N[C@@H](CCCCN)C(=O)N[C@@H]([C@@H](C)O)C(=O)N1)C(=O)O (stereo partly drawn) [[Ga]50],−2.00 ± 0.12,8.18
C[C@@H](O)[C@H](NC(=O)C1CSSCC(NC(=O)C(Cc2ccccc2)NC(=O)CNC(=O)CNC(=O)CNC(=O)C(CC(=O)O)NC(=O)[C@@H](CC(=O)O)NC(=O)C(CNC(=O)C[N+](C)(C)Cc2ccc([Si](F)(C(C)(C)C)C(C)(C)C)cc2)NC(=O)CN2CCN(CC(=O)O)CCN(CC(=O)O)CCN(CC(=O)O)CC2)C(=O)N[C@@H](Cc2ccc(O)cc2)C(=O)NC(Cc2c[nH]c3ccccc23)C(=O)N[C@@H](CCCCN)C(=O)N[C@@H]([C@@H](C)O)C(=O)N1)C(=O)O (stereo partly drawn) [[Ga]44],−2.06 ± 0.08,6.99
C[C@@H](O)[C@H](NC(=O)C1CSSCC(NC(=O)C(Cc2ccccc2)NC(=O)[C@@H](CC(N)=O)NC(=O)C(CC(N)=O)NC(=O)[C@@H](CC(=O)O)NC(=O)C(CC(=O)O)NC(=O)[C@@H](CNC(=O)CN2CCN(CC(=O)O)CCN(CC(=O)O)CCN(CC(=O)O)CC2)NC(=O)C[N+](C)(C)Cc2ccc([Si](F)(C(C)(C)C)C(C)(C)C)cc2)C(=O)N[C@@H](Cc2ccc(O)cc2)C(=O)NC(Cc2c[nH]c3ccccc23)C(=O)N[C@@H](CCCCN)C(=O)N[C@@H]([C@@H](C)O)C(=O)N1)C(=O)O (stereo partly drawn) [[Ga]48],−2.10 ± 0.05,8.11
C[C@@H](O)[C@H](NC(=O)C1CSSCC(NC(=O)C(Cc2ccccc2)NC(=O)CNC(=O)CNC(=O)[C@@H](CC(=O)O)NC(=O)C(CC(=O)O)NC(=O)[C@@H](CNC(=O)CC[C@H](C(=O)O)N2CCN(CC(=O)O)CCN(CC(=O)O)CCN(CC(=O)O)CC2)NC(=O)C(CN)NC(=O)c2ccc([Si](F)(C(C)(C)C)C(C)(C)C)cc2)C(=O)N[C@@H](Cc2ccc(O)cc2)C(=O)NC(Cc2c[nH]c3ccccc23)C(=O)N[C@@H](CCCCN)C(=O)N[C@@H]([C@@H](C)O)C(=O)N1)C(=O)O (stereo partly drawn) [[Lu]20],−2.35 ± 0.04,18.76
C[C@@H](O)[C@H](NC(=O)C1CSSCC(NC(=O)C(Cc2ccccc2)NC(=O)CNC(=O)CNC(=O)[C@@H](CC(=O)O)NC(=O)C(CC(=O)O)NC(=O)[C@@H](CNC(=O)CN2CCN(CC(=O)O)CCN(CC(=O)O)CCN(CC(=O)O)CC2)NC(=O)C(CN)NC(=O)c2ccc([Si](F)(C(C)(C)C)C(C)(C)C)cc2)C(=O)N[C@@H](Cc2ccc(O)cc2)C(=O)NC(Cc2c[nH]c3ccccc23)C(=O)N[C@@H](CCCCN)C(=O)N[C@@H]([C@@H](C)O)C(=O)N1)C(=O)O (stereo partly drawn) [[Ga]19],−2.11 ± 0.04,21.17
